# Results: PubChem BioAssay (NCI)
#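 Values below derive from 48-hour exposures of cells grown in 96-well plates, with endpoints linearly interpolated between the two concentrations bracketing the appropriate inhibition level. GI50 marks 50% less growth. Definition used: TGI = concentration required for complete inhibition of growth.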
# Tests used:
# Assay in all cases: inhibition of tumour cell growth, NCI panel, 48 h
# MOLT-4 leukemia = tested on: MOLT-4 leukemia
# MDA-MB-231 breast = tested on: MDA-MB-231 breast
# K-562 leukemia = tested on: K-562 leukemia
# IGROV1 ovarian = tested on: IGROV1 ovarian
# RPMI-8226 leukemia = tested on: RPMI-8226 leukemia
# NCI-H23 lung = tested on: NCI-H23 lung
# HOP-62 NSCLC = tested on: HOP-62 NSCLC
# SK-MEL-28 melanoma = tested on: SK-MEL-28 melanoma
# NCI-H460 lung = tested on: NCI-H460 lung
# SR leukemia = tested on: SR leukemia
Structure (SMILES),GI50 (MOLT-4 leukemia),TGI (MOLT-4 leukemia),GI50 (MDA-MB-231 breast),TGI (MDA-MB-231 breast),GI50 (K-562 leukemia),TGI (K-562 leukemia),GI50 (IGROV1 ovarian),TGI (IGROV1 ovarian),GI50 (RPMI-8226 leukemia) [µM],TGI (RPMI-8226 leukemia) [µM],GI50 (NCI-H23 lung),TGI (NCI-H23 lung),GI50 (HOP-62 NSCLC),TGI (HOP-62 NSCLC),GI50 (SK-MEL-28 melanoma),TGI (SK-MEL-28 melanoma),GI50 (NCI-H460 lung),TGI (NCI-H460 lung),GI50 (SR leukemia),TGI (SR leukemia)
O=c1[nH]c(=O)c2cc(C3CC(O)C(CO)O3)ccc2[nH]1 (stereo unspecified),> 100 µM,> 100 µM,> 100 µM,> 100 µM,> 100 µM,> 100 µM,> 100 µM,> 100 µM,> 100,> 100,> 100 µM,> 100 µM,> 100 µM,> 100 µM,> 100 µM,> 100 µM,> 100 µM,> 100 µM,,
CNCCNc1c2c(c(NCCNC)c3[nH]ccc13)C(=O)c1ccccc1C2=O,< 0.0261 µM,,0.1 µM,0.33 µM,0.126 µM,> 100 µM,0.111 µM,0.686 µM,0.051,0.214,0.197 µM,0.558 µM,0.135 µM,0.543 µM,4.18 µM,11.1 µM,0.0991 µM,0.501 µM,,
Nc1nc(N)c2c(n1)NC(c1ccc(F)cc1)C1CCc3ccccc3C1=N2 (stereo unspecified),,,5.8 µM,19.8 µM,,,7.79 µM,24.1 µM,1.81,5.11,4.06 µM,16.6 µM,6 µM,19.8 µM,7.16 µM,19.7 µM,3.76 µM,13.6 µM,1.65 µM,4.14 µM
COC(=O)NN=C1C(C)(C)C(=O)C1(C)C,,> 100 µM,,,,> 100 µM,,> 100 µM,,> 100,,> 100 µM,,> 100 µM,,> 100 µM,,> 100 µM,,
CN1CC[C@]2(C)c3cc(O)ccc3CC3CCCC1C32C (stereo partly specified),,> 100 µM,,,,> 100 µM,,> 100 µM,,> 100,,> 100 µM,,> 100 µM,,> 100 µM,,> 100 µM,,> 100 µM
O=C(O)CCC(NC(=O)c1ccccc1)C(=O)O (stereo unspecified),,> 100 µM,,,,> 100 µM,,> 100 µM,,> 100,,> 100 µM,,> 100 µM,,> 100 µM,,> 100 µM,,> 100 µM
Cn1ccc2c(C(=O)c3ccccc3)cccc2c1=O,,> 100 µM,,,,,,> 100 µM,,> 100,,,,93.7 µM,,> 100 µM,,> 100 µM,,> 100 µM
CCOC(=O)/C(=C\c1ccc(C#N)cc1)C(C)=O,,> 100 µM,,33.3 µM,,> 100 µM,,33.9 µM,,54.5,,36.7 µM,,> 100 µM,,,,> 100 µM,,
COc1ccc(/C(=N\O)c2cc(C)c(OC)c(C)c2)cc1O,0.052 µM,> 100 µM,0.0438 µM,> 100 µM,,,0.0134 µM,> 100 µM,,,0.0314 µM,> 100 µM,0.0215 µM,> 100 µM,20.9 µM,> 100 µM,< 0.01 µM,15.6 µM,< 0.01 µM,> 100 µM
O=C1CCCC(=O)N1CCc1c[nH]c2ccccc12,,> 100 µM,,,,> 100 µM,,> 100 µM,,,,> 100 µM,,> 100 µM,,> 100 µM,,> 100 µM,,> 100 µM
NC1=C(c2nc(-c3ccccc3)cs2)C(c2ccc(Br)cc2)c2c(c3ccccc3oc2=O)O1 (stereo unspecified),33 µg/mL,118 µg/mL,39.2 µg/mL,> 150 µg/mL,77.1 µg/mL,> 150 µg/mL,96 µg/mL,> 150 µg/mL,,,71 µg/mL,> 150 µg/mL,116 µg/mL,> 150 µg/mL,79.9 µg/mL,> 150 µg/mL,66.8 µg/mL,> 150 µg/mL,55.2 µg/mL,> 150 µg/mL
COc1cc(C(O)C(=O)c2nc3ccc([N+](=O)[O-])cc3[nH]c2=O)ccc1O (stereo unspecified),,> 100 µM,,,,> 100 µM,,> 100 µM,,> 100,,> 100 µM,,> 100 µM,,> 100 µM,,> 100 µM,,> 100 µM
C[C@]12CCC(=O)C(O)=C1CC[C@@H]1C2CC[C@]2(C)Nc3c(cnn3-c3ccccc3)CC12 (stereo partly specified),,> 100 µM,,,,> 100 µM,,> 100 µM,,97.5,,> 100 µM,,> 100 µM,,> 100 µM,,> 100 µM,,
Fc1ccccc1C1SCc2nc3ccccc3n21 (stereo unspecified),,> 100 µM,,,,> 100 µM,,> 100 µM,,> 100,,> 100 µM,,,,> 100 µM,,> 100 µM,,> 100 µM
CC1=NN(C(=O)CC(=O)NC(=O)CC(=O)Nc2ccccc2F)C(=O)C1N=Nc1ccc([N+](=O)[O-])cc1 (stereo unspecified),,77.7 µM,,,,65.4 µM,,> 100 µM,,46.3,,> 100 µM,,> 100 µM,,> 100 µM,,> 100 µM,,
O=C1C2C=CC(C2)C(c2ccc(O)cc2)N1O (stereo unspecified),,> 100 µM,,,,> 100 µM,,> 100 µM,,> 100,,> 100 µM,,> 100 µM,,> 100 µM,,> 100 µM,,> 100 µM
NCCN.NCCN.O=C([O-])CCl.O=C([O-])CCl.[Co+3].[O-][Cl+3]([O-])([O-])[O-],> 100 µM,> 100 µM,,,> 100 µM,> 100 µM,> 100 µM,> 100 µM,> 100,> 100,> 100 µM,> 100 µM,> 100 µM,> 100 µM,> 100 µM,> 100 µM,> 100 µM,> 100 µM,,
O=c1nc(NC(c2ccccc2)(c2ccccc2)c2ccccc2)ccn1CCNCCn1ccc(NC(c2ccccc2)(c2ccccc2)c2ccccc2)nc1=O,,,,,,> 100 µM,,56.2 µM,,,,26.8 µM,,32.5 µM,,22.2 µM,,33.8 µM,,
Cc1ccc([N+](=O)[O-])cc1NC(=O)c1cccc([N+](=O)[O-])c1O,,73 µM,,,,96.6 µM,,98.6 µM,,68.3,,48.4 µM,,34 µM,,51.2 µM,,> 100 µM,,
